From the supplement of paper PMC5579334
± gives the standard deviation of the averaged measurements.

Assays:
HS-PSS [1] = assay: % inhibition of CellTiter-Glo viability at highest tested concentration (72 h), relative to DMSO and benzethonium chloride controls; higher = more inhibition
In short: (§1)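 MPNST cell lines and primary human Schwann cells were seeded at 750–1000 cells per well into 384-well plates preprinted with each compound at five concentrations in 10-fold steps, then incubated 72 h at 37 °C, 5% CO2. CellTiter-Glo ATP luminescence gave viability, scaled between vehicle and positive-control wells, with duplicates averaged where present. Curves were fitted with a four-parameter logistic model. Percent inhibition refers to the top concentration, while drug sensitivity score and relative IC50, censored at the top concentration, come from these fits.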

[2] = tested on: HSC2 (primary human Schwann cells); assay: as above
In short: as §1

HS-Sch-2 [3] = assay: as above
In short: as §1

[4] = tested on: HSC1 (primary human Schwann cells); assay: as above
In short: as §1

S1507-2 [5] = assay: as above
In short: as §1

ST8814 [6] = assay: as above
In short: as §1

YST-1 [7] = assay: as above
In short: as §1

STS26T [8] = assay: as above
In short: as §1

S462 [9] = assay: as above
In short: as §1

HS-PSS [10] = assay: drug sensitivity score (DSS, CellTox-Green cytotoxicity, 72 h) (DSS (dimensionless)); higher = more cytotoxic; extreme values may be limits of the assay
In short: (§2)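 For 72 h at 37 °C, MPNST cell lines and primary human Schwann cells were exposed in 384-well plates to five 10-fold compound dilutions. CellTox-Green, added before seeding at a final 1:1000 dilution, gave fluorescence from DNA released by disrupted cells. Signals were scaled to vehicle and positive-control wells, cultures failing plate quality control were left out, and four-parameter logistic fits were applied. Relative IC50 and drug sensitivity score were derived from the fits, with IC50 censored at the top concentration.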

[11] = tested on: HSC2 (primary human Schwann cells); assay: as above
In short: as §2

[12] = tested on: HSC1 (primary human Schwann cells); assay: as above
In short: as §2

S1507-2 [13] = assay: as above
In short: as §2

ST8814 [14] = assay: as above
In short: as §2

STS26T [15] = assay: as above
In short: as §2

HS-PSS [16] = assay: drug sensitivity score (DSS, CellTiter-Glo viability, 72 h) (DSS (dimensionless)); higher = more sensitive; extreme values may be limits of the assay
In short: as §1

[17] = tested on: HSC2 (primary human Schwann cells); assay: as above
In short: as §1

HS-Sch-2 [18] = assay: as above
In short: as §1

[19] = tested on: HSC1 (primary human Schwann cells); assay: as above
In short: as §1

S1507-2 [20] = assay: as above
In short: as §1

ST8814 [21] = assay: as above
In short: as §1

YST-1 [22] = assay: as above
In short: as §1

STS26T [23] = assay: as above
In short: as §1

S462 [24] = assay: as above
In short: as §1

Nc1nc(F)nc2c1ncn2[C@@H]1O[C@H](CO)[C@@H](O)[C@@H]1O [Fludarabine] (max concentration tested 10000 nM)
% inhibition (HS-PSS [1]): 24.9% | % inhibition [2]: 48.6% | % inhibition (HS-Sch-2 [3]): 35% | % inhibition [4]: 27.8% | % inhibition (S1507-2 [5]): 17.2 ± 10% | % inhibition (ST8814 [6]): 1.25% | % inhibition (YST-1 [7]): 69.7% | % inhibition (STS26T [8]): 31.6% | % inhibition (S462 [9]): 20 ± 11% | drug sensitivity score (HS-PSS [10]): 0 | drug sensitivity score [11]: 0 | drug sensitivity score [12]: 0 | drug sensitivity score (S1507-2 [13]): 0 | drug sensitivity score (ST8814 [14]): 0 | drug sensitivity score (STS26T [15]): 0 | drug sensitivity score (HS-PSS [16]): 2.18 | drug sensitivity score [17]: 2.94 | drug sensitivity score (HS-Sch-2 [18]): 2.33 | drug sensitivity score [19]: 0.98 | drug sensitivity score (S1507-2 [20]): 0.851 ± 1.2 | drug sensitivity score (ST8814 [21]): 0 | drug sensitivity score (YST-1 [22]): 3.5 | drug sensitivity score (STS26T [23]): 2.39 | drug sensitivity score (S462 [24]): 0.582 ± 0.72

C#Cc1cccc(Nc2ncnc3cc(OC)c(OCCCCCCC(=O)NO)cc23)c1 [CUDC-101] (max concentration tested 10000 nM)
% inhibition (HS-PSS [1]): 95% | % inhibition [2]: 102% | % inhibition (HS-Sch-2 [3]): 101% | % inhibition [4]: 102% | % inhibition (S1507-2 [5]): 103 ± 1.6% | % inhibition (ST8814 [6]): 102% | % inhibition (YST-1 [7]): 99.1% | % inhibition (STS26T [8]): 100% | % inhibition (S462 [9]): 102.2 ± 0.43% | drug sensitivity score (HS-PSS [10]): 6.98 | drug sensitivity score [11]: 11.8 | drug sensitivity score [12]: 11 | drug sensitivity score (S1507-2 [13]): 9.97 ± 2.9 | drug sensitivity score (ST8814 [14]): 9.2 | drug sensitivity score (STS26T [15]): 6 | drug sensitivity score (HS-PSS [16]): 12.6 | drug sensitivity score [17]: 15 | drug sensitivity score (HS-Sch-2 [18]): 15.7 | drug sensitivity score [19]: 15.8 | drug sensitivity score (S1507-2 [20]): 11.9 ± 0.6 | drug sensitivity score (ST8814 [21]): 12.3 | drug sensitivity score (YST-1 [22]): 20.8 | drug sensitivity score (STS26T [23]): 8.5 | drug sensitivity score (S462 [24]): 13.3 ± 1.8

COC1=CC(c2cc3ccccc3[nH]2)=N/C1=C\c1[nH]c(C)cc1C [Obatoclax] (max concentration tested 10000 nM)
% inhibition (HS-PSS [1]): 39.5% | % inhibition [2]: 81.8% | % inhibition (HS-Sch-2 [3]): 31.2% | % inhibition [4]: 80.1% | % inhibition (S1507-2 [5]): 95.5 ± 2% | % inhibition (ST8814 [6]): 93.7% | % inhibition (YST-1 [7]): 25.6% | % inhibition (STS26T [8]): 81.5% | % inhibition (S462 [9]): 89.3 ± 2.9% | drug sensitivity score (HS-PSS [10]): 0 | drug sensitivity score [11]: 2.43 | drug sensitivity score [12]: 4.21 | drug sensitivity score (S1507-2 [13]): 5.25 ± 0.56 | drug sensitivity score (ST8814 [14]): 4.99 | drug sensitivity score (STS26T [15]): 3.1 | drug sensitivity score (HS-PSS [16]): 2.94 | drug sensitivity score [17]: 8.2 | drug sensitivity score (HS-Sch-2 [18]): 2.53 | drug sensitivity score [19]: 8.07 | drug sensitivity score (S1507-2 [20]): 7.89 ± 1.2 | drug sensitivity score (ST8814 [21]): 5.7 | drug sensitivity score (YST-1 [22]): 2.23 | drug sensitivity score (STS26T [23]): 5.87 | drug sensitivity score (S462 [24]): 7.25 ± 0.51
